# Columns and labels:
# [1] = test system: intervertebral disc L1/2 to L3/4; test: Disc height on post-mortem X-ray (Example 3); assay type: in vivo, pig; details: 120 or 240 mg/ml lactic acid + iohexol, 0.2 ml; both doses; 2, 28 and 84 days; FIG. 16
# Source text: (§1) Eleven pigs were anesthetized and placed on their right side. Through a lateral incision the discs to be injected were exposed. […] After 2, 28 or 84 days the pigs were killed and the lumbar spine was harvested. All musculature was removed as well as the facet joints and ligamentum flavum between the L1/2, L2/3 and L3/4 vertebrae. The following endpoints were used: • A. X-ray pictures were taken at the day of injection and at the harvest day to ascertain that the injection was correctly placed and to determine if the discs were radio-opaque after 2, 28 and 84 days. • B. The X-rays taken post-mortem were used to measure disc height. • C. The sectioned discs were photographed and the degree of fibrotisation was visually evaluated.
# [2] = test system: pig; test: Tolerability and injection site observation (Example 1); assay type: in vivo; details: two pigs
# Description: Two pigs were anesthetized and placed on their right side. Access to the L4-5 intervertebral disc was obtained through a lateral incision between the lowest rib and the iliac crest on the left side of each pig. Thereafter, the L3-4 intervertebral disc was incised with a scalpel.
# The composition was injected in a single step at a single occasion.
# At harvest, the pigs were killed.
# The injection site was observed by the naked eye. […] The segment of the vertebral column extending from the lumbar vertebra L2 to the sacral vertebra S1 was removed. The facet joints were removed, thus allowing full flexibility of the discs with no restraints from other structures.
# [3] = test system: intervertebral disc L1/2 to L3/4; test: Visual evaluation of fibrotisation of the nucleus space (Example 3); assay type: in vivo, pig
# Source text: as §1
# [4] = test system: nucleus pulposus of the L3-4 intervertebral disc; test: Dimension of the disc space after administration (Example 1); assay type: in vivo, pig; details: injected disc L 3-4; 0.2 mL of 1.34 mol/L lactic acid; seven days after injection; mean ± SD
# Description: 110. performing a cross-section of the discs and measuring the length (anterio-posterior direction) and the width (bilateral direction) of the disc space. Two pigs were anesthetized and placed on their right side. Access to the L4-5 intervertebral disc was obtained through a lateral incision between the lowest rib and the iliac crest on the left side of each pig. Thereafter, the L3-4 intervertebral disc was incised with a scalpel. […] The composition was injected in a single step at a single occasion. The intervertebral discs (L2-3, L3-4, L4-5) were cross-sectioned and the length of the disc space (anterio-posterior direction) and the width (bilateral direction) of the disc space were measured by calipers. In FIGS. 5 and 6, an intervertebral disc is schematically shown in cross-section. The intervertebral disc comprises the annulus fibrosus 10, and a disc space defined by the annulus fibrosus and comprising the nucleus pulposus 11.
# [5] = test system: nucleus pulposus of the L3-4 intervertebral disc; test: Flexion stiffness of the injected intervertebral disc (Example 1); assay type: in vivo, pig; details: injected disc L 3-4; 0.2 mL of 1.34 mol/L lactic acid into nucleus pulposus; seven days after injection; mean ± SD; two pigs
# Description: Access to the L4-5 intervertebral disc was obtained through a lateral incision between the lowest rib and the iliac crest on the left side of each pig. Thereafter, the L3-4 intervertebral disc was incised with a scalpel. […] The composition was injected in a single step at a single occasion.
smiles,measurement,setting,value
CC(O)C(=O)O (stereo not drawn) [lactic acid],"Disc height, discs injected with lactic acid versus placebo (X-ray)",[1],no difference in height
same,Adverse reaction such as decreased mobility or vocalization,"[2]; 0.2 mL of 1.34 mol/L lactic acid intradiscal, period of seven days until harvest",no adverse reaction
same,"Adverse reaction at the injection site (bleedings, inflammation or necrosis), naked eye",[2]; at harvest seven days after injection,No adverse reaction at the injection site
same,Fibrotisation of the nucleus space,"[3]; 84 days after injection, some discs, FIG. 17a",fibrosis was close to complete
same,Fibrotisation of the nucleus space,"[3]; after 2 days, 120 or 240 mg/ml lactic acid, 0.2 ml, some discs",tendency to fibrotisation
same,Fibrotisation of the nucleus space,"[3]; after 28 days, 120 or 240 mg/ml lactic acid, 0.2 ml",fibrotisation was evident
same,Average antero-posterior length of the disc space,[4],13.5 ± 1.3 mm
same,Average bilateral width of the disc space,[4],4.0 ± 1.4 mm
same,Difference in distance between transverse processes before and upon full lateral flexion,[5],0.3 ± 0.6 mm

# — patent US10080729B2, “Composition for use in the treatment of intervertebral misalignment” (STAYBLE THERAPEUTICS AB, priority 2015, dated 2018)
